The record followed here is patent publication US10913781B2, “Pepducin design and use” (Tufts Medical Center, Inc., priority 2011, dated 2021).

The structures appear in SMILES notation. Where two headings read alike, the source gives them in different places. Peptide text beside a SMILES is read from it. * marks the point of attachment. Palmitoyl = CCCCCCCCCCCCCCCC(=O)*

A short description of series [1]: Pharmacokinetics of PAR1 pepducins in CF-1 mice, plasma LC/MS/MS. It counts as in vivo, mouse. The following applies: for Cmax: read-out: Peak plasma level. The protocol: FIG. 14 illustrates pharmacokinetics of PAR1 pepducins. (A): CF-1 mice were injected subcutaneously with P1pal-7 (3 mg/kg, open circles), P1pal-7 (10 mg/kg, closed circles), P1pal-10S (10 mg/kg, gray circles), or P1pal-i1-11 (10 mg/kg, open squares) in 20% dimethyl sulfoxide and blood was collected at indicated time points (n=3). Pepducin levels in plasma were quantified with LC/MS/MS. (B): Daily (D1 to D6) plasma levels of P1pal-7 after subcutaneous injection of 10 mg/kg P1pal-7 were measured at 1 hour (open circles) and 24 hours (open squares).
Pharmacokinetics of plasma levels of P1pal-7, P1pal-10S, and P1pal-i1-11 at 30 minutes, and at 1, 2, 4, 6, 8, and 16 hours was measured by LC/MS/MS to determine steady-state pepducin drug levels and the rate of elimination from mice. Subcutaneous injections of P1pal-7 (3 mg/kg or 10 mg/kg) into wild-type CF-1 mice (25 to 30 g) was followed by blood collection at various time points from the vena cava. […] Residual P1pal-7 levels were 10 nmol/L at the 16-hour time point. After the 4-hour plateau, the elimination rate was linear from 4 to 16 hours. The peak plasma level of 3 mg/kg P1pal-7 reached 0.6 μmol/L at 2 hours and elimination was linear between 2 hours and 16 hours. P1pal-10S (10 mg/kg) gave similar peak plasma level of 1.0 μmol/L as P1pal-7 (10 mg/kg) at 1 hour.
Lastly, the peak plasma level of P1pal-7 (10 mg/kg) was measured before and 1 hour after once-daily subcutaneous injection over 6 days to determine whether the peak plasma levels were consistent on daily administration.

The test system of series [2] is A549, HOP62, and HOP92 lung carcinoma cell lines. Nature of the series: Cytotoxicity/cell viability of lung carcinoma cells (MIT assay). Particulars: 3-day period. It counts as cell-based, human.
For series [3], the target named is T1, PAR1 (Homo sapiens, UniProt P25116).
T1 sequence (P25116 22-425): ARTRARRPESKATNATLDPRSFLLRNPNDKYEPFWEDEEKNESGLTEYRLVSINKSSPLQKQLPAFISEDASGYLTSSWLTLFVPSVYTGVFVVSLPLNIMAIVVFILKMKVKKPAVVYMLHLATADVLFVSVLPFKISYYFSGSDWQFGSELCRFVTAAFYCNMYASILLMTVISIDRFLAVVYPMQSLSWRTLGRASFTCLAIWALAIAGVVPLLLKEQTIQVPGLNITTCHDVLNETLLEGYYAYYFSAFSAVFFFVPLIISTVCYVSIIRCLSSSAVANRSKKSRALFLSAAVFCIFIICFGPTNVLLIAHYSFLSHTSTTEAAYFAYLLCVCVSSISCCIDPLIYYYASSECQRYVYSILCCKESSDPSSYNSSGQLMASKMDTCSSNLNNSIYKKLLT
Kind of series: ERK1/2 phosphorylation in A549 cells (thrombin or […]), Western blot. It counts as cell-based. On the set-up: endogenous in cells; host or cells: A549, HOP62, H1299, H522, H226, HOP92 lung carcinoma lines. The protocol:
FIG. 9 illustrates that differential inhibition of PAR1-ERK activation by i3- and i1-derived PAR1 pepducins. (A-C): Western blots of lysates from A549 cells untreated, or treated with thrombin, SLIGKV (SEQ ID NO:29), or AYPGKF (SEQ ID NO:5). Indicated samples were pretreated with various concentrations (0.1 to 3 μmol/L) of P1pal-7, P1pal-10S, or P1pal-i1-11 before stimulation and immunoblotted with anti-phospho-ERK. (D-F): Quantification of the Western blots in (A-C) were conducted by densitometry and results are expressed relative to maximum (fold max) phosphorylation of pERK.
(B): A549 cells stimulated with 10 μM […] over 2 h. A549 cells pretreated with 0.1 μM P1pal-7 and stimulated with 10 μM […] (SEQ ID NO:30) for 5 min. Total ERK was used as a loading control.
Last, there has been a great deal of interest in understanding the mechanism of PAR1-mediated activation of MAP kinase cascade and PAR1-dependent cellular growth and differentiation, proliferation and gene transcription. […] The effects of i1 versus i3 PAR1 pepducins on ERK1/2 activation were examined in the A549 lung adenocarcinoma cell line. […] Inhibition experiments with a range of pepducin concentrations (0.1-3 μM) were conducted. […] The […] (SEQ ID NO:30) peptide gave a rapid and transient ERK1/2 phosphorylation signal that peaked at 5-15 min after stimulation. […] To determine the specificity of the PAR1 pepducin inhibitors, their effects on the closely related PAR2 and PAR4 receptors were also tested.

Series [4] deals with T1, PAR1. Nature of the series: Migration of primary patient lung tumor cells. It counts as cell-based. Set-up: endogenous in cells; host or cells: A549, HOP62, H1299, H522, H226, HOP92 lung carcinoma lines. As to the method: FIG. 12 illustrates that PAR1 is a promigratory factor in lung cancer cells. (A-F): Inhibition of lung cancer migration in adenocarcinomas A549, HOP62, H1299 and H522, H226 squamous, and HOP92 large cell using PAR1 pepducins. Pepducins at […] (P1pal-7, P1pal-10S, P1pal-i1-11, or negative control P1pal-19EE) were added to the lower well. (G): Cell from primary lung tumors or nonmalignant control were pretreated with PAR1 pepducins and migration was determined (*P<0.05, **P<0.01).
Further experiments were carried out to determine whether migration of the primary carcinoma cell lines isolated from lung tumors could be inhibited by PAR1 pepducins (FIG. 12G). […] Likewise, the RWJ-56110 small-molecule antagonist of PAR1 (Andrade-Gordon, et al., Proc. Natl Acad Sci USA, 96 (1999), pp. 12257-12262) suppressed up to 55% of the migration of primary lung tumor cells toward NIH-3T3 conditioned media. The PAR1 antagonist pepducin P1pal-7 and P1pal-i1-11 had no effect on the low-expressing PAR1 cell line derived from benign lung tissue, which migrated poorly (FIG. 12G).

For another series, the system named is A549 xenografts. It counts as in vivo, mouse. Particulars: mouse, in vivo. The protocol:
(§1) FIG. 13 illustrates that monotherapy with PAR1-i3 pepducins inhibits tumor progression of A549 xenografts. (A) and (B): A549 mice treated with vehicle, P1pal-7, P1pal-i1-11, P1pal-10S, X1/2-i1, X1/2-i3, or Avastin. Each time point represents the mean±SE. (C): Final tumor volume at the completion of the experiment was calculated as a percentage of untreated vehicle control. (D): Serum-starved A549 adenocarcinoma cells were pretreated with P1pal-7, P1pal-10S, P1pal-i1-11, vehicle, or PD98059 and stimulated with thrombin. VEGF production was assessed by enzyme-linked immunosorbent assay. Data are expressed as mean±SD (*P<0.05, **P<0.01).
PAR1 expression level is correlated with reduced survival of patients with NSCLC. To define the relative importance of PAR1 in lung tumor progression, in vivo mouse models were used. […] An A549 lung adenocarcinoma xenograft model in nude mice was used to evaluate monotherapy with P1pal-7, P1pal-10S, P1pal-i1-11, or the VEGF antagonist Avastin.

In another series the test system is VEGF-A production. Nature of the series: Thrombin-dependent VEGF-A production in A549 cells (ELISA). It counts as cell-based, human. The following applies: A549, 18 hours thrombin treatment. As to the method:
as §1
Because the i3-based P1pal-7 pepducin had similar efficacy as Avastin in suppressing lung tumor growth of A549 xenografts, VEGF-A production was measured in the A549 tumor cells after 18 hours thrombin treatment. […] Unlike in ovarian cancer, no increase was found in PAR1-mediated IL-8 production in A549 cells, consistent with the observed lack of efficacy of CXCR1/2 pepducins in the A549 xenograft models. These xenograft data provide support for the role of a novel PAR1-ERK1/2-VEGF paracrine pathway that is an effective therapeutic target in the A549 adenocarcinoma lung cancer model.

With `CCCCCCCCCCCCCCCC(=O)N[C@@H](CCCCN)C(=O)N[C@@H](CCCCN)C(=O)N[C@@H](CO)C(=O)N[C@@H](CCCNC(=N)N)C(=O)N[C@@H](C)C(=O)N[C@@H](CC(C)C)C(=O)N[C@@H](Cc1ccccc1)C(N)=O` [P1pal-7] (Palmitoyl-KKSRALF-NH2), the “Duration of peak plasma level” value in series [1] (10 mg/kg s.c.) was 4 h. The Cmax in series [1] (CF-1, mouse, plasma, sc, 3 mg/kg s.c.) is 600 nM; in series [1] (mouse, plasma, sc, 10 mg/kg s.c., CF-1 mice), 1100 nM. Moreover, the level at time molar at 6 h in series [1] (CF-1, mouse, plasma, sc, 10 mg/kg s.c., read-out: Plasma level at the 6-hour time point) was 200 nM. The level at time molar at 16 h in series [1] (CF-1, mouse, plasma, sc, 10 mg/kg s.c., read-out: Residual plasma level at the 16-hour time point) turned out to be 10 nM. For the same molecule, the “Accumulation in plasma after daily dosing” value in series [1] (daily subcutaneous dosing, mouse) is reported as “does not accumulate in plasma”. Moreover, the “Sensitivity of A549 cells (cytotoxicity)” value in series [2] is recorded as “most sensitive”. For the same molecule, the “Block of PRSFLLRN-induced phospho-ERK signal” value on PAR1 [3] (0.1 μM pepducin, 10 μM PRSFLLRN, 5 min, A549) was “completely block”. The “Effect on thrombin-induced ERK1/2 phosphorylation” value on PAR1 [3] (A549 cells, pepducin 0.1-3 μM) was “complete inhibition”. The “Effect on migration of low-expressing PAR1 cell line derived from benign lung tissue” value at PAR1 [4] was “no effect”. For the same molecule, the “Inhibition of tumor progression/growth (final tumor volume vs vehicle)” value in the series with A549 xenografts was found to be 75%. Besides, the “Effect on thrombin-dependent VEGF-A production” value in the series on VEGF-A production is recorded as “completely blocked”.

For `NCC[C@H](NC(=O)[C@H](Cc1ccc(F)c(F)c1)NC(=O)Nc1ccc2c(CN3CCCC3)cn(Cc3c(Cl)cccc3Cl)c2c1)C(=O)NCc1ccccc1` [RWJ-56110, reference compound], the “Inhibition of migration of primary lung tumor cells” value on PAR1 [4] (primary lung tumors) was “up to 55%”.
